# Data reported in PubChem BioAssay (NCI).
#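 How tested: cells in 96-well plates exposed to compound for 48 hours at five concentrations. At the GI50, growth is halved. TGI: concentration producing complete growth inhibition.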 *1 amine or outer side, *2 acyl side, *3 side chain or, on linkers, in order; H or OH if unused. Where a SMILES comes first, the peptide text is derived from it. Bridges are numbered along the chain shown (N, C = ends). Roman numbers before positions name the chains, in order. [ ]: non-standard residue; d: D form. Actinocin(9to1) = Cc1c2oc3c(C)ccc(C(=O)[*:1])c3nc-2c(C(=O)[*:2])c(N)c1=O; NMeV = CN[CH](C(=O)O)C(C)C; Sar = CNCC(=O)O
# Tests used:
# Test in all cases: NCI tumour cell line growth inhibition, 48 h
# BT-549 breast = system: BT-549 breast
# COLO 205 colon = system: COLO 205 colon
# HCC-2998 colon = system: HCC-2998 colon
# HL-60(TB) leukemia = system: HL-60(TB) leukemia
# HS 578T breast = system: HS 578T breast
# IGROV1 ovarian = system: IGROV1 ovarian
# LOX IMVI melanoma = system: LOX IMVI melanoma
# NCI-H522 lung = system: NCI-H522 lung
# PC-3 prostate = system: PC-3 prostate
# SW-620 colon = system: SW-620 colon
SMILES,TGI (BT-549 breast) [µM],TGI (COLO 205 colon) [µM],TGI (HCC-2998 colon) [µM],TGI (HL-60(TB) leukemia) [µM],TGI (HS 578T breast) [µM],TGI (IGROV1 ovarian) [µM],TGI (LOX IMVI melanoma) [µM],TGI (NCI-H522 lung) [µM],TGI (PC-3 prostate) [µM],TGI (SW-620 colon) [µM],GI50 (HL-60(TB) leukemia) [µM]
Nc1ccccc1N/C=C\C(=O)C(Cl)(Cl)Cl,58.6,52.7,31.7,85.3,> 100,40.7,29.7,> 100,> 100,48.1,–
Cc1ccc(N2CCc3c(C)c(C#N)c4nc5ccccc5n4c32)cc1,> 100,> 100,> 100,> 100,48.3,> 100,> 100,> 100,> 100,> 100,–
CC(C)(C)C1(COC(=O)c2ccc(N)cc2)COC1,> 100,> 100,> 100,> 100,> 100,> 100,> 100,> 100,> 100,> 100,–
CCCNC(C#N)c1ccc(C(C#N)NCCC)cc1 (stereo unspecified),> 100,> 100,> 100,> 100,> 100,> 100,> 100,> 100,> 100,> 100,–
O=c1c2cc(I)ccc2nc(Sc2ncccc2[N+](=O)[O-])n1Cc1ccccc1,64,> 100,> 100,2.02,92.3,> 100,> 100,78,> 100,> 100,–
Cc1[nH]c2ccccc2c1C=Nc1ccc(N=Cc2c(C)[nH]c3ccccc23)cc1,> 100,27.3,> 100,41.8,> 100,> 100,36.5,41.9,> 100,70.2,–
C=CCSC1=N/C(=C\c2ccccc2)C(=O)N1CC=C,> 100,> 100,> 100,18.7,> 89.4,> 100,> 81.3,> 100,> 75.8,> 100,–
CN(C)CCNC(=O)c1cccc2nc3c(nc12)-c1ccccc1C3=O,29.7,58.5,38.1,22.7,44,> 71.1,12.7,30.7,35,39.4,–
N#Cc1c(N2CCCC2)ncn(Cc2ccccc2)c1=O,> 100,> 100,> 100,> 100,> 100,> 100,> 100,> 100,> 100,> 100,–
CC[C@H](C)[C@H]1NC(=O)[C@@H](NC(=O)[C@@H](CC(C)C)N(C)CC2CCCN2C(=O)C(C)=O)[C@@H](C)OC(=O)[C@H](Cc2ccc(OC)cc2)N(C)C(=O)C2CCCN2C(=O)[C@H](CC(C)C)NC(=O)[C@@H](C)C(=O)[C@H](C(C)C)OC(=O)C[C@@H]1O (stereo partly specified),0.0135,0.00879,0.00958,0.021,0.0144,0.016,0.00861,0.0523,0.00983,1.8,–
COc1cc(CC2c3cc(OC)c(OC)cc3CCN2C)c(Oc2cc3c(cc2OC)-c2c(O)c(OC)cc4c2C(C3)N(C)CC4)cc1OC (stereo unspecified),32.4,42.5,31,17.9,45.2,45.1,67.9,39.3,94.6,> 100,–
O=C(OCc1ccccc1)C1(N2CN(C3(C(=O)OCc4ccccc4)CCCC3)CN(C3(C(=O)OCc4ccccc4)CCCC3)C2)CCCC1,> 10,> 10,> 10,> 10,> 10,> 10,> 10,> 10,> 10,> 10,–
CCOC(=O)/C=C(/C(=O)OCC)n1cc(C)c(=O)n(Cc2cn(COCCOC(C)=O)nn2)c1=O,37.9,> 55.2,37.6,84,> 78.3,32.1,47.8,6.9,> 100,> 57.6,–
CCOc1nc(-c2ccccc2)cc(-c2ccc(N3CCOCC3)cc2)c1C#N,> 100,> 100,> 100,> 100,> 100,> 100,> 100,> 100,> 100,> 100,–
O=C1c2c(nc3ccccc3c2-c2ccccc2)CN1Nc1ccccn1,> 100,> 100,> 100,> 100,67.4,> 100,> 100,> 100,> 100,> 100,–
C(=C\c1ccccc1)/C=N/c1nc2cc3sc(/N=C/C=C/c4ccccc4)nc3cc2s1,> 100,> 25.8,> 100,> 100,> 100,> 100,> 100,> 100,> 100,> 100,–

SMILES,TGI (BT-549 breast) [µM],TGI (COLO 205 colon) [µM],TGI (HCC-2998 colon) [µM],TGI (HL-60(TB) leukemia) [µM],TGI (HS 578T breast) [µM],TGI (IGROV1 ovarian) [µM],TGI (LOX IMVI melanoma) [µM],TGI (NCI-H522 lung) [µM],TGI (PC-3 prostate) [µM],TGI (SW-620 colon) [µM],GI50 (HL-60(TB) leukemia) [µM]
O=S1(=O)c2ccccc2C(=NO)c2ccccc21,> 100,> 100,> 100,36.2,> 100,> 100,> 100,> 100,> 100,> 100,–
COc1cc(/C=C2\N=C(c3ccccc3)N(c3nc4c(OC)ccc(OC)c4s3)C2=O)cc(OC)c1OC,> 100,> 100,> 100,> 100,> 100,> 100,> 100,> 100,> 100,> 100,–
CCOC(=O)/C=C(\C(=O)OCC)n1ccc(N)nc1=O,> 100,> 100,> 100,> 100,> 100,> 100,> 100,40.8,> 100,> 100,–
"Cc1c2oc3c(C)ccc(C(=O)NC4C(=O)NC(C(C)O)C(=O)N5CCCC5C(=O)N(C)CC(=O)N(C)C(C(C)C)C(=O)OC4C)c3nc-2c(C(=O)NC2C(=O)NC(C(C)O)C(=O)N3CCCC3C(=O)N(C)CC(=O)N(C)C(C(C)C)C(=O)OC2C)c(N)c1=O (stereo unspecified) (I: TTP[Sar][NMeV] / II: TTP[Sar][NMeV]; ester I:1-I:C, II:1-II:C; linker I:N-II:N via Actinocin(9to1); configuration not given here)",1.03,0.762,> 30.3,5.12,72,> 100,0.984,1.14,> 100,> 100,–
COC(=O)/C=C(/C(=O)OC)c1c(C)c(C)c2c(C)cc(C)cc(C)c1-2,> 100,> 100,> 100,> 100,62.2,> 100,> 100,52.3,> 100,> 100,–
NC(=S)Nc1[nH]c(=S)nc2c1SC1=N/C(=C\c3ccco3)C(=O)N12,> 100,> 100,> 50.4,46.8,> 100,> 100,> 100,> 100,> 100,> 100,–
O=c1cc(N2CCCC2)[nH]c(=O)n1-c1cccc(C(F)(F)F)c1,> 100,> 100,> 100,> 100,> 100,> 100,> 100,> 100,> 100,> 100,–
CSC1=C(C#N)C(=O)N(c2ccc(C)cc2)C(=S)C1C#N (stereo unspecified),> 100,> 100,> 100,> 100,> 100,> 100,> 100,> 100,> 100,> 100,–
NC(=O)c1ccc2c(c1)S(=O)(=O)c1ccccc1C2=O,> 100,> 100,> 100,> 100,> 100,> 100,> 100,> 100,> 100,> 100,–
COC(=O)n1c(=O)n(-c2ccccc2)c(=O)n1C(=O)OC,> 100,> 100,> 100,> 100,> 100,> 100,> 100,> 100,> 100,> 100,–
O=C1C=C(Br)c2c(Br)sc(Br)c21,17,15.9,28.1,29.2,> 100,16.5,5.77,3.99,26.4,> 20.6,–
COC(=O)/C=C/c1cc(O)c2c(c1)[C@H](C(=O)OC)[C@@H](c1ccc(O)c(O)c1)O2,30.3,61.6,54.6,0.0801,78.3,> 38.8,> 82.6,0.838,> 100,> 100,0.0293
O=[N+]([O-])c1ccc(N=Nc2c(O)c(S(=O)(=O)O)cc3cc(S(=O)(=O)O)ccc23)cc1,> 100,> 100,> 100,> 100,> 100,> 100,> 100,> 100,> 100,> 100,–
C=CCNC(=O)NC1=CSC2=NC(=O)C3(NN12)c1ccccc1-c1ccccc13,> 10,> 10,> 10,> 10,> 10,> 10,> 10,> 10,> 10,> 10,–
Cc1sc(/N=C/c2c[nH]c3ccccc23)c(C#N)c1C,> 100,> 100,70.5,> 100,> 100,> 100,> 100,> 100,> 100,> 100,–
CN(NC(=O)CCCl)C1=NCCCCN1,> 100,> 100,> 100,> 100,> 100,> 100,> 100,> 100,> 100,> 100,–
